Data on three molecules can be found in publication PMC6437697 (Journal of Medicinal Chemistry, 2019).

The target of one test is T1, LZK (Homo sapiens, UniProt O43283).
T1 construct: purchased Eurofins DiscoverX KINOMEscan
T1 sequence (O43283 1-966): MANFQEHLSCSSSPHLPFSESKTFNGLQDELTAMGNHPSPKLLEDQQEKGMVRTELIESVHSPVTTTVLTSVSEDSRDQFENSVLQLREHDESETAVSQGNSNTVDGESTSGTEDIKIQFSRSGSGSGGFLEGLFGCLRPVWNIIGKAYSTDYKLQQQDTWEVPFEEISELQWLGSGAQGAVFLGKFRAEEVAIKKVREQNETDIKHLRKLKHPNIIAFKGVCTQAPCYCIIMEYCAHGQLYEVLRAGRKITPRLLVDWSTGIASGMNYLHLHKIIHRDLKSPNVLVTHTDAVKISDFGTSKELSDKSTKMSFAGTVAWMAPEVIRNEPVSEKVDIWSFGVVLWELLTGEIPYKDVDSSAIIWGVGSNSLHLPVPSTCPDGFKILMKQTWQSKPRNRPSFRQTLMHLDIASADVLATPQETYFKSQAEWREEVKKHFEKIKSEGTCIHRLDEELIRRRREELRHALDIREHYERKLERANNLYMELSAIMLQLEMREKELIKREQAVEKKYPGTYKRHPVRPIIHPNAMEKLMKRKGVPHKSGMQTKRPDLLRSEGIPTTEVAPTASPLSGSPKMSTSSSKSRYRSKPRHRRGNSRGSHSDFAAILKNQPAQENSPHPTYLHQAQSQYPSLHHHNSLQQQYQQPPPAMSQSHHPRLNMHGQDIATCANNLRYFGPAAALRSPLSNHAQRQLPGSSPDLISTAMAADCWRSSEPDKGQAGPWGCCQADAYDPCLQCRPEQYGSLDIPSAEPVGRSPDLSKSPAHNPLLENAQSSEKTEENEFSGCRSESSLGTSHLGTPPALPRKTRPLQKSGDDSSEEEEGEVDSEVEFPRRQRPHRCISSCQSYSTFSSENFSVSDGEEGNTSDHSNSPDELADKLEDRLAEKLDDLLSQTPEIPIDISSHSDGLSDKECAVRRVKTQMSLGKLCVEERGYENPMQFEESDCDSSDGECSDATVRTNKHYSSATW
The experiment in a line: KINOMEscan. Format: binding. As to conditions: read-out: % control activity remaining.

Another test concerns the target T2, MAP3K15 (Homo sapiens, UniProt Q6ZN16).
T2 construct: purchased Eurofins DiscoverX KINOMEscan
T2 sequence (Q6ZN16 1-1313): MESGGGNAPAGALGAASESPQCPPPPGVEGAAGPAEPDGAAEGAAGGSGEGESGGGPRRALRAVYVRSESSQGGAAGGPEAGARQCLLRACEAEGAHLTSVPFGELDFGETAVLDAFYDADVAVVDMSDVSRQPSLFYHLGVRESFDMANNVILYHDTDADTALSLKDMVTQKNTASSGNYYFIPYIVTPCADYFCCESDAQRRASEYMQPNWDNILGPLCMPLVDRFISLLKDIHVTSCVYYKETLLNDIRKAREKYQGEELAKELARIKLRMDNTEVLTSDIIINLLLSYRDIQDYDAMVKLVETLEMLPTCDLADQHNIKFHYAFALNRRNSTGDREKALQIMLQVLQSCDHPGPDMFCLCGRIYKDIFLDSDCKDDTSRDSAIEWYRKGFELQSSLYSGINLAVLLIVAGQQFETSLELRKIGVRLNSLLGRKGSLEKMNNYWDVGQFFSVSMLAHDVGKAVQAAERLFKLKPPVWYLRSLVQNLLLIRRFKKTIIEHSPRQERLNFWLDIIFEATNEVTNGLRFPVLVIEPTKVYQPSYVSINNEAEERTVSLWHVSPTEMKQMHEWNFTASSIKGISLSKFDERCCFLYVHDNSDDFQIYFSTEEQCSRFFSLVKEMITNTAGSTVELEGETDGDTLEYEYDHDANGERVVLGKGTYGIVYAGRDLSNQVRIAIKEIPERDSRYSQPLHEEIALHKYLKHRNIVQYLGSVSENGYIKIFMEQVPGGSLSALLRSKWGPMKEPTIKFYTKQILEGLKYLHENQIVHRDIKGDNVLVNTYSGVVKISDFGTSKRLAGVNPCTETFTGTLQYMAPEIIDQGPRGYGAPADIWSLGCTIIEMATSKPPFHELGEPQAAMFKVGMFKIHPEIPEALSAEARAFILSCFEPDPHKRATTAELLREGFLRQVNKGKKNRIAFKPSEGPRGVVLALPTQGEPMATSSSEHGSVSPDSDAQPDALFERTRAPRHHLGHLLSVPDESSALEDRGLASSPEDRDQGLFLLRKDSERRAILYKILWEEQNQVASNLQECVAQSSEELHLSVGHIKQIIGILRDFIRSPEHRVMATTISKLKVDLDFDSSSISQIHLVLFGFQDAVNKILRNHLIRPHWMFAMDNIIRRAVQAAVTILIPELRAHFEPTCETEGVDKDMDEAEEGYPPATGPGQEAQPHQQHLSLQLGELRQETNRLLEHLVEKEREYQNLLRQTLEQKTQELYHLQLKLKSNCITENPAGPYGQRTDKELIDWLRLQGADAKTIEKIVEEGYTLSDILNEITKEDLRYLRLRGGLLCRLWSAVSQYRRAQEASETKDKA
The test can be described thus: KINOMEscan. The settings on record: read-out: % control activity remaining. The class given is binding.

`Clc1cc(NCC2CC2)c2ncc(-c3ccc4[nH]ncc4c3)n2n1` [compound 2, 6-Chloro-N-(cyclopropylmethyl)-3-(1H-indazol-5-yl)imidazo[1,2-b]pyridazin-8-amine]: the remaining binding at 1 µM on LZK is 100%; on MAP3K15, 83%.

Consider `O=C(CN1CCOCC1)N[C@H]1CC[C@H](Nc2cc(Cl)nn3c(-c4ccc5[nH]ncc5c4)cnc23)CC1` [compound 26], for which the remaining binding at 1 µM came to 100% at LZK and 98% at MAP3K15.

Regarding `CN1CCC(CNc2cc(Cl)nn3c(-c4cc5nc(Nc6ccccc6)[nH]c5cc4F)cnc23)CC1` [compound 31, 6-Chloro-3-(6-fluoro-2-(phenylamino)-1H-benzo[d]imidazol-5-yl)-N-((1-methylpiperidin-4-yl)methyl)imidazo[1,2-b]pyridazin-8-amine], the remaining binding at 1 µM came out at 98% on LZK and 100% on MAP3K15.
